From ChEMBL document CHEMBL6182864, “Design, synthesis and biological evaluation of 3-amino-6-(2-hydroxyphenyl)pyridazin-4-aryl derivatives as SMARCA2/4 degraders” (Eur J Med Chem, 2025)
The source made the active and inactive calls. No cut-off for these calls is given here.

Assays:
MOLM-13 [1] = experiment: Induction of SMARCA2 degradation in human MOLM-13 cells at 10 uM measured after 72 hrs by Western blotting analysis; type: cell-based
MOLM-13 [2] = experiment: Induction of SMARCA4 degradation in human MOLM-13 cells at 10 uM measured after 72 hrs by Western blotting analysis; type: cell-based
MV4-11 [3] = experiment: cells; conditions: Homo sapiens, MV4-11, 72 h
MOLM-13 [4] = experiment: cells; conditions: Homo sapiens, MOLM-13, 72 h
MV4-11 [5] = experiment: Induction of apoptosis in human MV4-11 cells assessed as viable cells at 100 nM measured after 72 hrs by Annexin-V-FITC/propidium iodide staining based flow cytometry (reference value: 89.49%); type: functional; conditions: read-out: Activity
MV4-11 [6] = experiment: Induction of apoptosis in human MV4-11 cells assessed as early apoptotic cells at 100 nM measured after 72 hrs by Annexin-V-FITC/propidium iodide staining based flow cytometry (reference value: 9.32%); type: functional
MV4-11 [7] = experiment: Induction of apoptosis in human MV4-11 cells assessed as late apoptotic cells at 100 nM measured after 72 hrs by Annexin-V-FITC/propidium iodide staining based flow cytometry (reference value: 1.09%); type: functional
MV4-11 [8] = experiment: Induction of apoptosis in human MV4-11 cells assessed as necrotic cells at 100 nM measured after 72 hrs by Annexin-V-FITC/propidium iodide staining based flow cytometry (reference value: 0.1%); type: functional
MOLM-13 [9] = experiment: Induction of apoptosis in human MOLM-13 cells assessed as viable cells at 100 nM measured after 72 hrs by Annexin-V-FITC/propidium iodide staining based flow cytometry (reference value: 90.28%); type: functional; conditions: read-out: Activity
MOLM-13 [10] = experiment: Induction of apoptosis in human MOLM-13 cells assessed as early apoptotic cells at 100 nM measured after 72 hrs by Annexin-V-FITC/propidium iodide staining based flow cytometry (reference value: 5.57%); type: functional
MOLM-13 [11] = experiment: Induction of apoptosis in human MOLM-13 cells assessed as late apoptotic cells at 100 nM measured after 72 hrs by Annexin-V-FITC/propidium iodide staining based flow cytometry (reference value: 3.87%); type: functional
MOLM-13 [12] = experiment: Induction of apoptosis in human MOLM-13 cells assessed as necrotic cells at 100 nM measured after 72 hrs by Annexin-V-FITC/propidium iodide staining based flow cytometry (reference value: 0.28%); type: functional
MV4-11 [13] = experiment: Induction of apoptosis in human MV4-11 cells assessed as viable cells at 300 nM measured after 72 hrs by Annexin-V-FITC/propidium iodide staining based flow cytometry (reference value: 89.49%); type: functional; conditions: read-out: Activity
MV4-11 [14] = experiment: Induction of apoptosis in human MV4-11 cells assessed as early apoptotic cells at 300 nM measured after 72 hrs by Annexin-V-FITC/propidium iodide staining based flow cytometry (reference value: 9.32%); type: functional
MV4-11 [15] = experiment: Induction of apoptosis in human MV4-11 cells assessed as late apoptotic cells at 300 nM measured after 72 hrs by Annexin-V-FITC/propidium iodide staining based flow cytometry (reference value: 1.09%); type: functional
MV4-11 [16] = experiment: Induction of apoptosis in human MV4-11 cells assessed as necrotic cells at 300 nM measured after 72 hrs by Annexin-V-FITC/propidium iodide staining based flow cytometry (reference value: 0.1%); type: functional
MOLM-13 [17] = experiment: Induction of apoptosis in human MOLM-13 cells assessed as viable cells at 300 nM measured after 72 hrs by Annexin-V-FITC/propidium iodide staining based flow cytometry (reference value: 90.28%); type: functional; conditions: read-out: Activity
MOLM-13 [18] = experiment: Induction of apoptosis in human MOLM-13 cells assessed as early apoptotic cells at 300 nM measured after 72 hrs by Annexin-V-FITC/propidium iodide staining based flow cytometry (reference value: 5.57%); type: functional
MOLM-13 [19] = experiment: Induction of apoptosis in human MOLM-13 cells assessed as late apoptotic cells at 300 nM measured after 72 hrs by Annexin-V-FITC/propidium iodide staining based flow cytometry (reference value: 3.87%); type: functional
MOLM-13 [20] = experiment: Induction of apoptosis in human MOLM-13 cells assessed as necrotic cells at 300 nM measured after 72 hrs by Annexin-V-FITC/propidium iodide staining based flow cytometry (reference value: 0.28%); type: functional
MV4-11 [21] = experiment: Induction of apoptosis in human MV4-11 cells assessed as viable cells at 1000 nM measured after 72 hrs by Annexin-V-FITC/propidium iodide staining based flow cytometry (reference value: 89.49%); type: functional; conditions: read-out: Activity
MV4-11 [22] = experiment: Induction of apoptosis in human MV4-11 cells assessed as early apoptotic cells at 1000 nM measured after 72 hrs by Annexin-V-FITC/propidium iodide staining based flow cytometry (reference value: 9.32%); type: functional
MV4-11 [23] = experiment: Induction of apoptosis in human MV4-11 cells assessed as late apoptotic cells at 1000 nM measured after 72 hrs by Annexin-V-FITC/propidium iodide staining based flow cytometry (reference value: 1.09%); type: functional
MV4-11 [24] = experiment: Induction of apoptosis in human MV4-11 cells assessed as necrotic cells at 1000 nM measured after 72 hrs by Annexin-V-FITC/propidium iodide staining based flow cytometry (reference value: 0.1%); type: functional
MOLM-13 [25] = experiment: Induction of apoptosis in human MOLM-13 cells assessed as viable cells at 1000 nM measured after 72 hrs by Annexin-V-FITC/propidium iodide staining based flow cytometry (reference value: 90.28%); type: functional; conditions: read-out: Activity
MOLM-13 [26] = experiment: Induction of apoptosis in human MOLM-13 cells assessed as early apoptotic cells at 1000 nM measured after 72 hrs by Annexin-V-FITC/propidium iodide staining based flow cytometry (reference value: 5.57%); type: functional
MOLM-13 [27] = experiment: Induction of apoptosis in human MOLM-13 cells assessed as late apoptotic cells at 1000 nM measured after 72 hrs by Annexin-V-FITC/propidium iodide staining based flow cytometry (reference value: 3.87%); type: functional
MOLM-13 [28] = experiment: Induction of apoptosis in human MOLM-13 cells assessed as necrotic cells at 1000 nM measured after 72 hrs by Annexin-V-FITC/propidium iodide staining based flow cytometry (reference value: 0.28%); type: functional

CC(C)C[C@H](NC(=O)[C@H](Cc1ccccc1)NC(=O)c1cnccn1)B(O)O
Activity (MOLM-13 [1]): Active | Activity (MOLM-13 [2]): Active

Cc1ncsc1-c1ccc(CNC(=O)[C@@H]2C[C@@H](O)CN2C(=O)[C@@H](NC(=O)C2(c3ccc(-c4cc(-c5ccccc5O)nnc4N)cc3)CC2)C(C)(C)C)cc1
IC50 (MV4-11 [3]): 30 nM | IC50 (MOLM-13 [4]): 0.26 µM

Cc1ncsc1-c1ccc([C@H](C)NC(=O)[C@@H]2C[C@@H](O)CN2C(=O)[C@@H](NCc2ccc(-c3cc(-c4ccccc4O)nnc3N)cc2)C(C)(C)C)cc1
IC50 (MV4-11 [3]): 3880 nM | IC50 (MOLM-13 [4]): 6.85 µM

Cc1ncsc1-c1ccc([C@H](C)NC(=O)[C@@H]2C[C@@H](O)CN2C(=O)[C@@H](NC(=O)CSc2ccc(-c3cc(-c4ccccc4O)nnc3N)cc2)C(C)(C)C)cc1
IC50 (MV4-11 [3]): 5750 nM | IC50 (MOLM-13 [4]): 5.1 µM

Cc1ncsc1-c1ccc([C@H](C)NC(=O)[C@@H]2C[C@@H](O)CN2C(=O)[C@@H](NC(=O)c2ccc(-c3cc(-c4ccccc4O)nnc3N)cc2)C(C)(C)C)cc1
IC50 (MV4-11 [3]): > 10000 nM | IC50 (MOLM-13 [4]): > 10 µM

Cc1ncsc1-c1ccc(CNC(=O)[C@@H]2C[C@@H](O)CN2C(=O)[C@@H](NC(=O)COc2ccc(-c3cc(-c4ccccc4O)nnc3N)cc2)C(C)(C)C)cc1
IC50 (MV4-11 [3]): 300 nM | IC50 (MOLM-13 [4]): 0.85 µM

Cc1ncsc1-c1ccc(CNC(=O)[C@@H]2C[C@@H](O)CN2C(=O)[C@@H](NC(=O)Cc2ccc(-c3cc(-c4ccccc4O)nnc3N)cc2)C(C)(C)C)cc1
IC50 (MV4-11 [3]): 710 nM | IC50 (MOLM-13 [4]): 2.73 µM

Cc1ncsc1-c1ccc([C@H](C)NC(=O)[C@@H]2C[C@@H](O)CN2C(=O)[C@@H](NC(=O)COc2ccc(-c3cc(-c4ccccc4O)nnc3N)cc2)C(C)(C)C)cc1
IC50 (MV4-11 [3]): 120 nM | IC50 (MOLM-13 [4]): 0.46 µM

Cc1ncsc1-c1ccc(CNC(=O)[C@@H]2C[C@@H](O)CN2C(=O)[C@@H](NC(=O)CCc2ccc(-c3cc(-c4ccccc4O)nnc3N)cc2)C(C)(C)C)cc1
IC50 (MV4-11 [3]): 2140 nM | IC50 (MOLM-13 [4]): 3.87 µM

Cc1ncsc1-c1ccc([C@H](C)NC(=O)[C@@H]2C[C@@H](O)CN2C(=O)[C@@H](NC(=O)Cc2ccc(-c3cc(-c4ccccc4O)nnc3N)cc2)C(C)(C)C)cc1
IC50 (MV4-11 [3]): 240 nM | IC50 (MOLM-13 [4]): 3.82 µM

Cc1ncsc1-c1ccc(CNC(=O)[C@@H]2C[C@@H](O)CN2C(=O)[C@@H](NCc2ccc(-c3cc(-c4ccccc4O)nnc3N)cc2)C(C)(C)C)cc1
IC50 (MV4-11 [3]): 4780 nM | IC50 (MOLM-13 [4]): 4.67 µM

Cc1ncsc1-c1ccc(CNC(=O)[C@@H]2C[C@@H](O)CN2C(=O)[C@@H](NC(=O)CSc2ccc(-c3cc(-c4ccccc4O)nnc3N)cc2)C(C)(C)C)cc1
IC50 (MV4-11 [3]): 5770 nM | IC50 (MOLM-13 [4]): 7.78 µM

Cc1ncsc1-c1ccc(CNC(=O)[C@@H]2C[C@@H](O)CN2C(=O)[C@@H](NC(=O)c2ccc(-c3cc(-c4ccccc4O)nnc3N)cc2)C(C)(C)C)cc1
IC50 (MV4-11 [3]): 5070 nM | IC50 (MOLM-13 [4]): 9.61 µM

NS(=O)(=O)OC[C@@H]1C[C@@H](n2ccc3c(N[C@H]4CCc5ccccc54)ncnc32)C[C@@H]1O
Activity (MOLM-13 [1]): Active | Activity (MOLM-13 [2]): Active

Cc1ncsc1-c1ccc([C@H](C)NC(=O)[C@@H]2C[C@@H](O)CN2C(=O)[C@@H](NC(=O)CN2CCN(c3cc(-c4ccccc4O)nnc3N)CC2)C(C)(C)C)cc1
viability at 0.1 µM (MV4-11 [5]): 24% | Activity (MV4-11 [6]): 52.03% | Activity (MV4-11 [7]): 22.53% | Activity (MV4-11 [8]): 1.43% | viability at 0.1 µM (MOLM-13 [9]): 53.7% | Activity (MOLM-13 [10]): 39.38% | Activity (MOLM-13 [11]): 6.71% | Activity (MOLM-13 [12]): 0.25% | viability at 0.3 µM (MV4-11 [13]): 19.1% | Activity (MV4-11 [14]): 52.83% | Activity (MV4-11 [15]): 26.43% | Activity (MV4-11 [16]): 1.63% | viability at 0.3 µM (MOLM-13 [17]): 21.8% | Activity (MOLM-13 [18]): 62.09% | Activity (MOLM-13 [19]): 15.85% | Activity (MOLM-13 [20]): 0.31% | viability at 1 µM (MV4-11 [21]): 18.5% | Activity (MV4-11 [22]): 56.45% | Activity (MV4-11 [23]): 24.02% | Activity (MV4-11 [24]): 1.01% | viability at 1 µM (MOLM-13 [25]): 13.9% | Activity (MOLM-13 [26]): 58.07% | Activity (MOLM-13 [27]): 27.77% | Activity (MOLM-13 [28]): 0.28%

Cc1ncsc1-c1ccc([C@H](C)NC(=O)[C@@H]2C[C@@H](O)CN2C(=O)[C@@H](NC(=O)CCc2ccc(-c3cc(-c4ccccc4O)nnc3N)cc2)C(C)(C)C)cc1
IC50 (MV4-11 [3]): 3110 nM | IC50 (MOLM-13 [4]): 8.73 µM

Cc1ncsc1-c1ccc(CNC(=O)[C@@H]2C[C@@H](O)CN2C(=O)[C@@H](NC(=O)CCCc2ccc(-c3cc(-c4ccccc4O)nnc3N)cc2)C(C)(C)C)cc1
IC50 (MV4-11 [3]): 20 nM | IC50 (MOLM-13 [4]): 1.45 µM

Cc1ncsc1-c1ccc([C@H](C)NC(=O)[C@@H]2C[C@@H](O)CN2C(=O)[C@@H](NC(=O)CCCc2ccc(-c3cc(-c4ccccc4O)nnc3N)cc2)C(C)(C)C)cc1
IC50 (MV4-11 [3]): 340 nM | IC50 (MOLM-13 [4]): 0.12 µM
